Experimental data published in patent US10021861B2, “Genetically modified non-human animals and methods relating to innate immune system response detection” (The Jackson Laboratory, priority 2013, dated 2018).
Marks after values point to notes of the source that are not given here.

Experiments:
Format in all cases: in vivo
[1] = tested on: mouse innate immune cells; test: CD40 and CD86 expression on mouse innate immune cells from spleen of NSG mice (flow cytometry); conditions: 100 μg IP, 24 hours
Procedure: (§1) (San Jose, Calif.), eBiosciences (San Diego, Calif.) or BioLegend, (San Diego, Calif.). […] Single-cell suspensions of bone marrow (BM) and spleen were prepared from engrafted mice, and whole blood was collected in heparin. Single cell suspensions of 1×10^6 cells in 50 μL or 100 μL of whole blood were washed with FACS buffer (PBS supplemented with 2% fetal bovine serum, (HyClone, Logan, Utah) and 0.02% sodium azide (Sigma, St. Louis, Mo.)) and then pre-incubated with rat anti-mouse FcR11b (clone 2.4G2, BD Biosciences) to block Fc binding. Specific antibodies were then added to the samples and incubated for 30 min at 4° C. Stained samples were then washed and fixed with 2% paraformaldehyde for cell suspensions or treated with BD FACS lysing solution for whole blood. At least 50,000 events were acquired on LSRII or FACSCalibur instruments (BD Biosciences). Data analysis was performed with FlowJo (Tree Star, Inc., Ashland, Oreg.) software. Ultra Pure lipopolysaccharide (LPS, E. coli 0111:B4 strain), and polyinosinic-polycytidylic (poly(I:C), high molecular weight, HMW) were purchased from Invivogen (San Diego, Calif.). The indicated mice were injected intraperitoneally (IP) with 100 μg of either LPS or poly(I:C). To confirm that NSG-TLR4^null mice are unable to respond to TLR4 agonists, NSG and NSG-TLR4^null mice were treated with LPS and the ability of innate immune cells to increase expression of phenotypic markers (Table I) and produce cytokines (FIG. 2) was evaluated.

[2] = tested on: mouse innate immune cells; test: CD40 and CD86 expression on mouse innate immune cells from spleen of NSG-TLR4^null mice (flow cytometry)
Procedure: as §1

[3] = tested on: mouse innate immune cells; test: Mouse serum cytokines by cytometric bead array in NSG-TLR4^null mice (unmanipulated or HSC-engrafted); conditions: in both NSG and NSG-TLR4^null mice, 100 μg IP, 24 hours
[4] = NSG-TLR4^null mice, 100 μg IP, 24 hours, spleen

With polyinosinic-polycytidylic [poly(IC)] the “CD40 Expression, CD11b+ Macrophage” value [1] was 3909 ± 377, the “CD40 Expression, CD11c+/CD11b+ DC” value [1] was 6860 ± 1276^b and the “CD40 Expression, CD11c+/CD11b− DC” value [1] was 19935 ± 1020^b. For the same substance, the “CD86 Expression, CD11b+ Macrophage” value [1] was 68.27 ± 5.93, the “CD86 Expression, CD11c+/CD11b+ DC” value [1] was 540.3 ± 40^b and the “CD86 Expression, CD11c+/CD11b− DC” value [1] was 1111 ± 141^c. The “CD40 Expression, CD11b+ Macrophage” value [2, 4] was 4168 ± 104, the “CD40 Expression, CD11c+/CD11b+ DC” value [2, 4] was 5035 ± 3278^b and the “CD40 Expression, CD11c+/CD11b− DC” value [2, 4] was 16160 ± 3782^b. For the same substance, the “CD86 Expression, CD11b+ Macrophage” value [2, 4] was 77.77 ± 15.96, the “CD86 Expression, CD11c+/CD11b+ DC” value [2, 4] was 635 ± 57.7^b and the “CD86 Expression, CD11c+/CD11b− DC” value [2, 4] was 1315 ± 82^b. For the same substance, the “induced increases in the expression of CD40 and CD86 on mouse innate immune cells” value ([2]; between NSG and NSG-TLR4^null mice) was “similar” and the mouse cytokine response [3] was “similar”.
